Results reported in patent US20130237582A1, “PHARMACEUTICAL COMBINATION OF PACLITAXEL AND A CDK INHIBITOR” (Piramal Enterprises Limited, priority 2010, published 2013).

Columns and labels:
VEGF = VEGF reporter gene based assay (M-9 cells); format: cell-based; settings: Homo sapiens, hypoxia, 20-24 h, read-out: IC50 for VEGF inhibition under hypoxia
Procedure: A cell line M-9 is MDA-MB-231 which is stably co-transfected with the VEGF-Luc construct (VEGF promoter in pGL2-basic) and a plasmid containing the Geneticin (G418) resistance gene which forms VEGF promoter reporter gene. The expression of the reporter gene in the clone cells, as measured by luciferase activity, is stable.
The effect of Compound A on VEGF inhibition was evaluated using the VEGF reporter gene based assay.
Lysis Assay Buffer (1×) • Tris-Phosphate (pH 7.8)-125 mM, DTT-10 mM, EDTA-10 mM, Glycerol-50% and Triton X-100-5%.
Luciferase Assay Reagent (LAR) • Luciferase Assay Buffer-8 mL, 530 μM ATP-530 μL, 270 μM CoA-1 mL and 170 μM Luciferin-1 mL.
Luciferase Assay Buffer (LAB) (1×) • Tricin (pH 7.8)-20 mM, Magnesia Alba-1.07 mM, MgSO4-2.67 mM, EDTA-0.1 mM and DTT-33.3 mM. ATP Stock made in LAB=5.85 mg/mL CoA Stock made in LAB=2.1 mg/mL Luciferin Stock made in LAB=1.5 mg/mL
1. M-9 cells were sub-cultured and maintained in RPMI-1640 Medium with supplement of 10% FBS, and 4 μL/ml G418 (Stock 100 mg/mL) in a humidified incubator at 37° C. and 5% CO2. 2. Cells were seeded at density of 3×10^4 cells/well in 180 μL volume in tissue culture grade 96 well white plates as well as transparent plates and allowed to adhere for 16-20 h in humidified CO2 incubator (5% CO2) at 37° C. A total of two sets of plates were made, as the incubation conditions are different. 3. Compound A, Sutent® and BSI-201 were diluted in medium serially so that final desired concentrations are achieved in the respective wells. (not more than 0.5% concentration of DMSO in the wells). 4. INCUBATION CONDITIONS: One set of plates are incubated under ambient atmospheric condition with 5% CO2, referred hereafter as NORMOXIC/OXIC PLATE. […] To all the wells, 100 μL Luciferase Assay Reagent (LAR) are added, plates are immediately read for Luminescence on TOPCOUNT™ (Packard, USA). The percentage inhibitions and Inhibitory Concentration (IC50) or Effective Concentration (EC50) are calculated in comparison with Control (untreated) values. […]

MDA-MB-468 [1] = assay: Cell cycle progression and apoptosis by flow cytometry (sub-G1); format: cell-based, human; settings: 50 μM
Procedure: Before analysis, cells were washed twice with PBS to remove the fixative and re-suspended in PBS containing 50 μg/mL propidium iodide and 50 μg/mL RNaseA. After incubation at room temperature (20-35° C.) for 20 min, cells were analyzed using flow cytometry. A Becton Dickinson FACS Calibur flow cytometer (BD, USA) was used for these studies. The argon ion laser set at 488 nm was used as an excitation source. Cells with DNA content between 2n and 4n were designated as being in G1, S and G2/M phases of the cell cycle, as defined by the level of red fluorescence. […] The number of cells in each cell cycle compartment was expressed as a percentage of the total number of cells present. The results are shown in Table 3 and graphically presented in FIG. 3A (MCF-7 cell lines) and FIG. 3B (MDA-MB-231 cell lines).
Comparison of the effect of Compound A and PARP inhibitor BSI-201 (Iniparib developed by Sanofi-Aventis. BSI-201 is prepared in-house) on cell cycle progression and apoptosis was evaluated in two TNBC cell lines. The asynchronous human TNBC cell lines MDA-MB-231 and MDA-MB-468 were seeded in […] tissue culture flask at a density of 0.5×10^6 cells per flask in RPMI 1460 with 10% FCS. After 24 h, cells were treated either with 1.5 and 3.0 μM of Compound A or 50 μM of PARP inhibitor BSI-201 for 72 h. After the incubation cells were harvested (trypsinised) and processed as given in example 6.

MDA-MB-231 [2] = assay: Combination in vitro cytotoxicity (PI) assay; format: cell-based; settings: Homo sapiens, then CM 72 h, read-out: % inhibition of Group IA
Procedure: The propidium iodide fluorescence assay (PI) was carried out according to the procedure mentioned in Anticancer Drugs, 1995, 6, 522-32.
(§1) The assay was developed to characterize the in vitro growth of human tumor cell lines as well as to test the cytotoxic activity of the test compounds. Propidium iodide (PI) was used as a dye, which penetrates only, damaged cellular membranes. Intercalation complexes are formed by PI with double-stranded DNA, which effect an amplification of the fluorescence. After freezing the cells at −20° C. for 24 h, PI had access to total DNA leading to total cell population counts. Background readings were obtained from cell-free wells containing media and propidium iodide.
The human triple negative breast cancer cell line, MDA-MB-231 was seeded at a density of 1500-3000 cells/well in 180 μL of RPMI-1640 medium in a 96-well plate and incubated for about 16 h in humidified 5% CO2 incubator at 37±1° C. to allow the cells to adhere. The schedule consists of six treatment groups. In every treatment group, 20 μL of 10× compound (dissolved first in DMSO and then diluted in cell medium, final DMSO concentration not exceeding 0.5%) was used in the wells and the plate was incubated in humidified 5% CO2 incubator at 37±1° C. The medium was removed from the wells and washed with PBS. 100 μL of PI working solution (7 μg/mL) per well was added and the plates were stored at −80° C. for about 16 h. The plates were thawed and the fluorescence was measured using the POLARstar optima plate reader (USA) at excitation 536 nm and emission 590 nm.
(PI stock solution of 1 mg/mL was prepared by dissolving 1 mg PI in 1 mL of distilled water. PI working solution was prepared by adding 140 μL of stock solution to PBS to make up the volume to […] (7 μg/mL)).
The synergistic effects in TNBC MDA-MB-231 cell line have been evaluated using the CompuSyn software by Chou and Talalay, described in Pharmacological Reviews, 2006, 58, 621-681. Combination index (CI) is used to evaluate if a combination is additive, synergistic or antagonistic. CI<1 is synergistic, CI=1 is additive and CI>1 is antagonistic.

MDA-MB-231 [3] = assay: Cytotoxicity assay using propidium iodide (PI); format: cell-based, human; settings: Homo sapiens, 48 h treatment, PI assay
Procedure: as §1, with “The propidium iodide fluorescence assay (PI) was carried out according to the procedure mentioned in Anticancer Drugs, 1995, 6, 522-32. The” for “The”, “the” for “the test”, “only” for “only,”, “iodide. The human breast cancer cell lines (i.e. […] Control wells were treated with vehicle (DMSO). At the end of the incubation periods, the plates were assayed using PI cytotoxicity assay protocol. Percent cytoxicity was calculated at various drug concentrations and from the graph plotted the IC50 values were determined.” for “iodide.”

MDA-MB-468 [4] = assay: Cytotoxicity assay using propidium iodide (PI); format: cell-based, human; settings: Homo sapiens, 48 h treatment, PI assay
Procedure: as §1, with “The propidium iodide fluorescence assay (PI) was carried out according to the procedure mentioned in Anticancer Drugs, 1995, 6, 522-32. The” for “The”, “the” for “the test”, “only” for “only,”, “iodide. The human breast cancer cell lines (i.e. […] Control wells were treated with vehicle (DMSO). At the end of the incubation periods, the plates were assayed using PI cytotoxicity assay protocol. Percent cytoxicity was calculated at various drug concentrations and from the graph plotted the IC50 values were determined.” for “iodide.”

BT-549 = assay: Cytotoxicity assay using propidium iodide (PI); format: cell-based; settings: Homo sapiens, 48 h treatment
Procedure: as §1, with “The propidium iodide fluorescence assay (PI) was carried out according to the procedure mentioned in Anticancer Drugs, 1995, 6, 522-32. The” for “The”, “the” for “the test”, “only” for “only,”, “iodide. The human breast cancer cell lines (i.e. […] Control wells were treated with vehicle (DMSO). At the end of the incubation periods, the plates were assayed using PI cytotoxicity assay protocol. Percent cytoxicity was calculated at various drug concentrations and from the graph plotted the IC50 values were determined.” for “iodide.”

Row | IC50 (VEGF) | Structure (SMILES) | % apoptosis at 72 h (MDA-MB-468 [1]) | inhibition at 0.03 µM (MDA-MB-231 [2]; paclitaxel 0.03 μM 24 h) | inhibition at 0.1 µM (MDA-MB-231 [2]; paclitaxel 0.1 μM 24 h) | inhibition at 0.3 µM (MDA-MB-231 [2]; paclitaxel 0.3 μM 24 h) | inhibition at 1 µM (MDA-MB-231 [2]; paclitaxel 1.0 μM 24 h) | inhibition at 3 µM (MDA-MB-231 [2]; paclitaxel 3.0 μM 24 h) | IC50 (MDA-MB-231 [3]) | IC50 (MDA-MB-468 [4]) | IC50 (BT-549)
1 | > 100 µM | NC(=O)c1ccc(I)c([N+](=O)[O-])c1 [BSI-201, reference compound] | 12.67% | – | – | – | – | – | – | – | –
2 | – | CC(=O)O[C@H]1C(=O)[C@@]2(C)[C@H]([C@H](OC(=O)c3ccccc3)[C@]3(O)C[C@H](OC(=O)[C@H](O)[C@@H](NC(=O)c4ccccc4)c4ccccc4)C(C)=C1C3(C)C)[C@]1(OC(C)=O)CO[C@@H]1C[C@@H]2O [Paclitaxel] | – | -2.6% | 8.3% | 82.9% | 88.7% | 89.1% | 0.9 µM | – | –
3 | 15 µM | CCN(CC)CCNC(=O)c1c(C)[nH]c(/C=C2\C(=O)Nc3ccc(F)cc32)c1C [Sunitinib, reference compound] | – | – | – | – | – | – | 7.8 µM | 10 µM | 18 µM
